Structures are written as SMILES.

In this assay the test system is M. tuberculosis H37Rv growth inhibition. Nature of the assay: M. tuberculosis H37Rv growth inhibitors, H37Rv strain (AID 1626). The note with it: for IC90: measured here: IC90 against H37Rv; for CC50: measured here: Vero cell cytotoxicity.

`O=C(CCl)Oc1ccc2occ(C(=O)c3cccs3)c2c1` had an IC90 greater than 100 µM.

As to `CC(C)OC(=O)c1cc(C(=O)c2cc(Cl)ccc2O)coc1=N`, the IC50 was 28.2 µM and the IC90 was greater than 100 µM.

In the case of `CCOC(=O)c1ccc(N2CSC3=C(C#N)C(c4ccc(OC)cc4OC)CC(=O)N3C2)cc1` (stereo not drawn), the IC50 was 41.8 µM and the IC90 is greater than 100 µM.

In the case of `O=C(Cc1ccc([N+](=O)[O-])cc1)Nc1cc(C(F)(F)F)cc(C(F)(F)F)c1`, the IC50 was 0.369 µM, the IC90 was greater than 100 µM and the CC50 is 20.8 µM.

In the case of `O=C(Cn1cnc2c(nnn2-c2ccccc2)c1=O)N1CCC(Cc2ccccc2)CC1`, the IC50 was 5.79 µM, the concentration for an effect of 90% (IC90) was found to be 6.58 µM and the CC50 was greater than 40 µM.

On to `Cc1ccc(CNCC(O)(c2ccccc2)c2ccc(Cl)cc2)cc1` (stereo not drawn), for which the IC50 was 8.17 µM, the IC90 was found to be 10.9 µM and the CC50 was greater than 40 µM.

As for `O=C(Nc1nccs1)c1cc2c(s1)CCCCC2`, the IC50 was 5.64 µM, the IC90 was 25 µM and the CC50 was greater than 40 µM.

Consider `CCOC(=O)c1ccc(COC(=O)c2ccc(-c3nnc(-c4ccccc4)o3)cc2)o1`, for which the IC50 is 23.4 µM, the IC90 is greater than 100 µM and the CC50 is greater than 40 µM.

As to `CC1=Nc2ccccc2/C1=C\c1nc(-c2ccc(C(F)(F)F)cc2)oc1O`, the IC50 was 1.71 µM, the IC90 is greater than 100 µM and the CC50 was greater than 40 µM.

As to `CC(C)(C)c1ccc(OC(=O)c2ccc3snnc3c2)cc1`, the IC50 is 5.94 µM and the IC90 was greater than 100 µM.

Take `Cc1ccc(-c2cc(C(F)F)n3ncc(C(=O)Nc4c(C)nn(Cc5ccccc5Cl)c4C)c3n2)cc1`: the IC50 was 2.16 µM, the IC90 was greater than 100 µM and the CC50 amounted to 24.4 µM.

With `O=C(NCc1nnc2c3ccccc3c(-c3ccccc3)nn12)c1ccc(Cl)cc1`, the 50% inhibitory concentration (IC50) is 3.04 µM, the IC90 amounted to 3.32 µM and the CC50 was greater than 40 µM.

For the molecule `N#C/C(=C/c1ccc(-c2ccc(Br)cc2)o1)C(=O)NC1CCCCC1`, the IC90 is greater than 100 µM and the CC50 is greater than 40 µM.

Take `COc1ccc(CNCc2cn(-c3cccc(F)c3)nc2-c2ccc(C)o2)cc1`: the IC50 is 6.12 µM, the IC90 was determined as 10.5 µM and the CC50 is greater than 40 µM.

On to `COc1ccc(-c2cc3nc(C)c(CCC(=O)NCc4ccc(F)cc4)c(C)n3n2)c(OC)c1`, for which the CC50 is greater than 40 µM.

Consider `Cc1cccc(NC(=O)c2ccc([N+](=O)[O-])o2)c1C`, for which the half-inhibitory concentration (IC50) is 12.2 µM, the IC90 worked out at 23.9 µM and the CC50 worked out at 11.5 µM.

`CC(C)Cc1c(O)nc(SCC(=O)Nc2ccc3c(c2)CCC3)[nH]c1=O` had an IC90 greater than 100 µM.

Take `Cc1cc2ccccc2n1CCNC(=O)COc1ccc2ccccc2c1`: the IC50 was 52.5 µM and the IC90 is greater than 100 µM.

As to `CCOc1ccc(NC(C(=O)Nc2cccc(C(C)=O)c2)c2ccccc2)cc1` (stereo not drawn), the IC90 is greater than 100 µM.

With `CCOc1cc(CNC(C)(C)CO)cc(Br)c1OCc1ccc(Cl)cc1Cl`, the IC50 was 11.4 µM, the IC90 is 12.3 µM and the CC50 came out at 12.7 µM.

Take `CC1CCCN(c2ccc([N+](=O)[O-])s2)C1` (stereo not drawn): the IC50 was 5.81 µM and the IC90 worked out at 6.36 µM.

As to `CCOC(=O)c1ccc(NC(=O)Oc2cc(C)c(Cl)cc2C(C)C)cc1`, the IC50 was 11.4 µM and the IC90 is greater than 100 µM.

Turning to `Brc1c(-c2ccc3c(c2)OCO3)nc2ncccn12`, the IC50 was 2.23 µM, the IC90 stood at 7.15 µM and the CC50 was greater than 40 µM.

Regarding `C=CCn1c(SCc2csc(-c3ccc(C)cc3)n2)nnc1-c1ccccc1OC`, the IC50 was 16.5 µM, the IC90 was 23.8 µM and the CC50 is greater than 40 µM.

Turning to `CC(C)c1ccc(-n2cccc2/C=C2/C(=N)N3C=CSC3=NC2=O)cc1`, the IC50 is 11.9 µM, the IC90 is greater than 100 µM and the CC50 is greater than 40 µM.

On to `CC(=O)Nc1sc2c(c1CN1CCN(c3ccc(F)cc3)CC1)CCCC2`, for which the IC50 is 13.2 µM, the IC90 was greater than 100 µM and the CC50 is greater than 40 µM.

With `Cc1ccc(-n2cc(C(=O)c3ccc(N4CCN(C)CC4)cc3)nn2)cc1Cl`, the IC50 is less than 0.391 µM, the IC90 was 4.59 µM and the CC50 stood at 12 µM.

As for `Cc1nc(Nc2ccc(Cl)c(Cl)c2)sc1C(=O)Nc1ccccc1`, the IC50 was 14.4 µM, the 90% effect concentration (IC90) amounted to 38 µM and the CC50 stood at 20.9 µM.

For `CCc1nc(N2CCCC(C)C2)c2oc3ccccc3c2n1` (stereo not drawn), the IC50 is 17 µM, the IC90 is 23.8 µM and the half-maximal cytotoxic concentration (CC50) was greater than 40 µM.

Molecule `CCOc1ccc(NC(=O)CSc2ccccc2N)cc1` showed an IC90 greater than 100 µM.

On to `O=C(OCC#CCSc1nnc(-c2ccc(Br)cc2)o1)c1cccs1`, for which the IC50 was less than 0.195 µM and the IC90 worked out at 2.44 µM.

For the molecule `CC(C)Cn1c(N)c(C(=O)COC(=O)c2cnc(Cl)c(Cl)c2)c(=O)n(C)c1=O`, the IC50 was 8.01 µM, the IC90 is 20.7 µM and the CC50 was greater than 40 µM.

As for `CCOC(=O)c1ccc(NC(=O)CCc2nc(-c3ccccc3Cl)no2)cc1`, the IC50 is 0.511 µM, the IC90 amounted to 57.8 µM and the CC50 is greater than 40 µM.

In the case of `Cc1cc(/C=N/n2cnnc2)c(C)n1-c1ccc(OCc2ccc(Cl)cc2Cl)cc1`, the IC50 is 8.02 µM, the IC90 was 15 µM and the CC50 was found to be 21.6 µM.

As for `Nc1ccccc1SCC(=O)Nc1nc(-c2ccccc2)cs1`, the IC90 was greater than 100 µM and the CC50 is greater than 40 µM.

Take `Cc1cc(Cl)n2c(nc3cc(F)c(F)cc32)c1C#N`: the IC50 was 3.98 µM, the IC90 was found to be 10.5 µM and the CC50 amounted to 2.29 µM.

For the molecule `COc1cc(CNC23CC4CC(CC(C4)C2)C3)ccc1OCc1ccccc1`, the IC50 is 2.94 µM, the IC90 stood at 3.35 µM and the CC50 was greater than 40 µM.

Consider `CCOc1ccc(N/C(C)=C\C(=O)c2ccc3c(c2)OCCO3)cc1`, for which the IC50 was 5.85 µM and the IC90 was greater than 100 µM.

As for `Cc1ccc(Cc2cnc(NC(=O)C3=NCCN3)s2)cc1`, the IC50 was 2.07 µM and the IC90 stood at 7.96 µM.

In the case of `Cc1cc([N+](=O)[O-])ccc1NC(=O)CN1C2CCC1CC(NC(=O)NC13CC4CC(CC(C4)C1)C3)C2` (stereo not drawn), the IC50 was 3.02 µM, the IC90 was 5.59 µM and the CC50 is greater than 40 µM.

Regarding `CCn1cc(CNC(=O)c2cc([N+](=O)[O-])c(C)c([N+](=O)[O-])c2)cn1`, the IC50 was 0.547 µM and the IC90 is 0.874 µM.

Turning to `O=C(/C=C/c1cccnc1)/C=C/c1cccnc1`, the IC50 is 0.909 µM, the IC90 was 1.33 µM and the CC50 worked out at 3.09 µM.

Turning to `O=C1OC(/C(=C\Nc2cc(Cl)ccc2O)[N+](=O)[O-])c2ccccc21` (stereo not drawn), the IC50 is 57.2 µM, the IC90 is greater than 100 µM and the CC50 is greater than 40 µM.

Regarding `O=C(CC(SCc1ccco1)c1ccc(O)cc1)c1cccs1` (stereo not drawn), the IC50 was 27.4 µM, the IC90 was greater than 100 µM and the CC50 was greater than 40 µM.

On to `CCCCCCCCOC(=O)c1c(CSC(=N)N)n(C)c2cc(Br)c(OC(C)=O)cc12`, for which the half-inhibitory concentration (IC50) was 11.4 µM and the IC90 was 15 µM.

`Cn1c(C(C#N)C(=O)c2sc3ccccc3c2Cl)nc2ccccc21` (stereo not drawn) gave a CC50 greater than 40 µM.

In general, IC90 refers to the concentration needed for an effect of 90%. The term IC50 denotes the concentration that inhibits the measured activity by half. As a reminder, the CC50 is the concentration that lowers cell viability or growth by half.

For the origin of these results see PubChem BioAssay AID1626 (SRMLSC, 2009).
